From US20230330067A1, “NOVEL THIOHYDANTOIN DERIVATIVES AND USES THEREOF” (CELROS BIOTECH, priority 2020, published 2023)

What was measured:
human Nox4 = molecular target: T1, human Nox4 (Homo sapiens, UniProt Q9NPH5); assay: Lucigenin chemiluminescence assay, human Nox4; assay type: biochemical; conditions: Drosophila membranes expressing hNox4; average of three assays
T1 construct: made in house; host or cells: transgenic Drosophila (UAS-hNox4/UAS-dDuox-RNAi; Da-GAL4/+), membranes from fly homogenate
T1 sequence (Q9NPH5 1-578): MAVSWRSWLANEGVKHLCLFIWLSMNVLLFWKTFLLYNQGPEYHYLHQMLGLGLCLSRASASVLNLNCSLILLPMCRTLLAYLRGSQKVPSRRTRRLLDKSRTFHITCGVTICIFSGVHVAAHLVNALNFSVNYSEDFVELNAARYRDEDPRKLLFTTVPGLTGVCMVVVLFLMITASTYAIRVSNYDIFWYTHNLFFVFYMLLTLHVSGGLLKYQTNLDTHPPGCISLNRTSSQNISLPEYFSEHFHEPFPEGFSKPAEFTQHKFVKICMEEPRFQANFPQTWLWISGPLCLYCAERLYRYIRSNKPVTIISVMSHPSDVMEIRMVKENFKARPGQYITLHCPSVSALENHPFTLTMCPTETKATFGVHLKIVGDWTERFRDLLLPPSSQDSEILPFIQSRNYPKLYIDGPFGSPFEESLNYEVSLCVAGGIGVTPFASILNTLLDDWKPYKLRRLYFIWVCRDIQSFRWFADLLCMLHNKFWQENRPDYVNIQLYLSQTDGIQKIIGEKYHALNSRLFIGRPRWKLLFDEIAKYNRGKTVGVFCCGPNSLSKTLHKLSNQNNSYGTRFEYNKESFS
Source text: (§1) Human Nox isozymes were provided from transgenic flies expressing human Nox isozymes under the daughterless (Da)-GAL4 promoter. The genotype of each fly line is shown below. • 1) Human Nox1: UAS-hNox1/UAS-dDuox-RNAi; Da-GAL4/+ • 2) Human Nox2: UAS-hNox2/UAS-dDuox-RNAi; Da-GAL4/+ • 3) Human Nox4: UAS-hNox4/UAS-dDuox-RNAi; Da-GAL4/+
(§2) Transgenic flies were homogenized with PBS containing protease inhibitors (Aprotinin and Leupeptin) to obtain Drosophila membranes of each Nox isozyme. The membranes were incubated with compounds (100 μM, 10 μM, 1 μM, 0.1 μM, 0.01 μM, 0.001 μM, and 0 μM) for 10 min on a shaker. After that, a mixture of 500 μM NADPH (beta-nicotinamide adenine dinucleotide 2′-phosphate reduced tetrasodium salt hydrate; Sigma-Aldrich) and 400 μM lucigenin (N,N′-dimethyl-9,9′-biacridinium dinitrate; Sigma-Aldrich) in 1X HEPES (4-(2-hydroxyethyl)-1-piperazineethanesulfonic acid) buffer was added to the membrane. Lucigenin chemiluminescence was detected at 1 minute intervals for 10 min using a multimode microplate reader (SpectraMax iD3, Molecular Devices). IC50 values were calculated with Graph-Pad Prism 5 (GraphPad Software).
(§3) Lucigenin chemiluminescence assays were performed with Drosophila membranes expressing hNox1, hNox2 and hNox4. The assay was repeated three times and the average of the IC50 values was determined.

BV2 cells = assay: Nox inhibitory effect in BV2 cells (LPS-induced ROS generation, lucigenin chemiluminescence); assay type: cell-based; conditions: BV2 cells pre-treated 30 minutes, 0-10000 nM, then LPS 200 ng/ml; FIG. 3
Description: BV2 cells were washed with Hank's balanced salt solution (HBSS) and incubated in HBSS at 37° C. for 30 minutes. Then, the cells were treated with the compound (compound of Example 1 or compound of Example 2) at various concentrations (0 nM, 1 nM, 10 nM, 100 nM, 1000 nM, and 10000 nM). After 30 minutes, 200 ng/ml of lipopolysaccharide (LPS) and 200 μM of lucigenin were added to the cells. Lucigenin chemiluminescence was detected at 10 second intervals for 15 minutes using a luminometer (GLOMA, Promega).
Specifically, BV2 cells were pre-treated with Compound (A) of Example 1 or Compound (B) of Example 2 for 30 minutes and generation of reactive oxygen species (ROS) was detected after treatment with LPS (200 ng/ml). Data are expressed as mean ±SD (N=3).

human Nox2 = molecular target: T2, human Nox2 (Homo sapiens, UniProt P04839); assay: Lucigenin chemiluminescence assay, human Nox2; assay type: biochemical; conditions: Drosophila membranes expressing hNox2; average of three assays
T2 construct: made in house; host or cells: transgenic Drosophila (UAS-hNox2/UAS-dDuox-RNAi; Da-GAL4/+), membranes from fly homogenate
T2 sequence (P04839 2-570 limits assumed): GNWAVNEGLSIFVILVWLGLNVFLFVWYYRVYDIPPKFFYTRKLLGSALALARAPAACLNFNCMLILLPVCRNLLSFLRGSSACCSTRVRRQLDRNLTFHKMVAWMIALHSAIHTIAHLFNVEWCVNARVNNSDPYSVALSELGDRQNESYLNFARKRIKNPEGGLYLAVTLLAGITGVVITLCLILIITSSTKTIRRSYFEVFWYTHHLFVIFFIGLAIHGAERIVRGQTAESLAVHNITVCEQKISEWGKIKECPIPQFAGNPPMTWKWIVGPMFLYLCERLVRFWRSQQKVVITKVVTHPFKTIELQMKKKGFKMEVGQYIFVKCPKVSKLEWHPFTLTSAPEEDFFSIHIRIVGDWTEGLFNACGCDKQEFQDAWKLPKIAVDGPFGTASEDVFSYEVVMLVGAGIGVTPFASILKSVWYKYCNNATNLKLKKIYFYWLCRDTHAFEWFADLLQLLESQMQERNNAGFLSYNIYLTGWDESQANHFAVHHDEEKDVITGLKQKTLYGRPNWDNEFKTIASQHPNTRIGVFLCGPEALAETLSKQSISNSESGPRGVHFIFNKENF
Source text: as §1, §2, §3

[1] = tested on: PFF-induced Parkinson's disease; assay: PFF-induced Parkinson's disease mice; assay type: in vivo, C57BL/6 mice; conditions: 10 mg/kg intraperitoneal daily for 3 months
Description: In order to develop preformed fibrils (PFF)-induced Parkinson's disease, 8-12 week old C57BL/6 mice were stereotaxically inoculated with 5 μg of PFF into the right dorsal striatum (AP+0.2 mm, […], DV 2.6 mm). Five months post single inoculation of PFF, animals were intraperitoneally injected with the compound of Example 2 at 10 mg/kg daily for 3 months. […] The maximum force of the mouse forelimb was recorded with a grip strength meter. The single inoculation of PFF impaired the grip strength of the forelimb.

human Nox1 = molecular target: T3, human Nox1 (Homo sapiens, UniProt Q9Y5S8); assay: Lucigenin chemiluminescence assay, human Nox1; assay type: biochemical; conditions: Drosophila membranes expressing hNox1; average of three assays
T3 construct: made in house; host or cells: transgenic Drosophila (UAS-hNox1/UAS-dDuox-RNAi; Da-GAL4/+), membranes from fly homogenate
T3 sequence (Q9Y5S8 1-564): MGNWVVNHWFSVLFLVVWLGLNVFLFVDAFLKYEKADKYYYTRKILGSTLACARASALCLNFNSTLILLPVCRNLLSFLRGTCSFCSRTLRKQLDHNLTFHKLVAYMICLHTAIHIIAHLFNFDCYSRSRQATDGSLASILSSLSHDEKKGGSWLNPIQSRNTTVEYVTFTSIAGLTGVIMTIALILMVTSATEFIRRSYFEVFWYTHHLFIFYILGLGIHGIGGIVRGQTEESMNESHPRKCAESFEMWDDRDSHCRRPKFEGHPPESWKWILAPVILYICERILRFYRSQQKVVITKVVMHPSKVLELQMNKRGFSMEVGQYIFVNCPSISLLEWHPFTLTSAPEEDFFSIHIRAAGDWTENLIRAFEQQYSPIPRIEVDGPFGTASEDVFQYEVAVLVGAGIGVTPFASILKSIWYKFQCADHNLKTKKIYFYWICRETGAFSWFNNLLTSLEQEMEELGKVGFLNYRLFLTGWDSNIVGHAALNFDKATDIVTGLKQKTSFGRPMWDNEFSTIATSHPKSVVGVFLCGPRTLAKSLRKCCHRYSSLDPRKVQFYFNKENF
Source text: as §1, §2, §3

| SMILES | IC50 (human Nox4) | IC50 (human Nox2) | IC50 (human Nox1) | generation of reactive oxygen species (ROS) (BV2 cells) | amount of α-synuclein in the hippocampus (HP CA1, HP CA3) ([1]; five months post PFF inoculation, FIG. 11) | astrocyte pathology (GFAP immuno-positive astrocytes) in the prefrontal cortex (Pfcx) ([1]; FIG. 12) | microglia pathology (Iba1 immunopositive activated microglia) in Pfcx and HP CA3 ([1]; FIG. 13) | neuromuscular function (forelimb grip strength) ([1]; FIG. 14) |
| --- | --- | --- | --- | --- | --- | --- | --- | --- |
| CC(C)CN1C(=O)C(=Cc2ccc(N(C)CCO)cc2)N(C)C1=S (mixture of isomers) [Example 2, 5-(4-((2-hydroxyethyl)(methyl)amino)benzylidene)-3-isobutyl-1-methyl-2-thioxoimidazolidin-4-one] | 1.72 µM | 1.84 µM | 1.49 µM | significant inhibition of ROS generation | significantly decreased | reduced GFAP immuno-positive astrocytes | reduced Ibal immunopositive activated microglia | improved the grip strength |
| CN1C(=S)N(Cc2ccccc2)C(=O)/C1=C\c1ccc(N(C)CCCO)cc1 [Example 5, (E)-3-benzyl-5-(4-((3-hydroxypropyl)(methyl)amino)benzylidene)-1-methyl-2-thioxoimidazolidin-4-one] | 0.907 µM | 1.35 µM | – | – | – | – | – | – |
| CN1C(=S)N(CCc2ccccc2)C(=O)/C1=C\c1ccc(N(C)CCO)cc1 [Example 6, (E)-5-(4-((2-hydroxyethyl)(methyl)amino)benzylidene)-1-methyl-3-phenethyl-2-thioxoimidazolidin-4-one] | 1.8 µM | 1.96 µM | – | – | – | – | – | – |
| COc1cc(N(C)CCCO)ccc1/C=C1\C(=O)N(Cc2ccccc2)C(=S)N1C [Example 8, (E)-3-benzyl-5-(4-((3-hydroxypropyl)(methyl)amino)-2-methoxybenzylidene)-1-methyl-2-thioxoimidazolidin-4-one] | 0.761 µM | 1.9 µM | – | – | – | – | – | – |

Further lines, with some results ahead:

| IC50 (human Nox4) | IC50 (human Nox2) | IC50 (human Nox1) | SMILES | generation of reactive oxygen species (ROS) (BV2 cells) | amount of α-synuclein in the hippocampus (HP CA1, HP CA3) ([1]; five months post PFF inoculation, FIG. 11) | astrocyte pathology (GFAP immuno-positive astrocytes) in the prefrontal cortex (Pfcx) ([1]; FIG. 12) | microglia pathology (Iba1 immunopositive activated microglia) in Pfcx and HP CA3 ([1]; FIG. 13) | neuromuscular function (forelimb grip strength) ([1]; FIG. 14) |
| --- | --- | --- | --- | --- | --- | --- | --- | --- |
| 1.72 µM | 1.58 µM | – | COc1cc(N(C)CCO)ccc1/C=C1\C(=O)N(C2CCCCC2)C(=S)N1C [Example 3, (E)-3-cyclohexyl-5-(4-((2-hydroxyethyl)(methyl)amino)-2-methoxybenzylidene)-1-methyl-2-thioxoimidazolidin-4-one] | – | – | – | – | – |
| 1.4 µM | 0.52 µM | – | CN1C(=S)N(C2CCCCC2)C(=O)/C1=C\c1ccc(N(C)CCO)cc1O [Example 4, (E)-3-cyclohexyl-5-(2-hydroxy-4-((2-hydroxyethyl)(methyl)amino)benzylidene)-1-methyl-2-thioxoimidazolidin-4-one] | – | – | – | – | – |
| 0.665 µM | 0.773 µM | – | CN1C(=S)N(Cc2ccccc2)C(=O)/C1=C\c1ccc(N(C)CCO)cc1O [Example 7, (E)-3-benzyl-5-(2-hydroxy-4-((2-hydroxyethyl)(methyl)amino)benzylidene)-1-methyl-2-thioxoimidazolidin-4-one] | – | – | – | – | – |
